Here are results for two compounds from ChEMBL document CHEMBL3046624, “Synthesis, single crystal X-ray studies and antimicrobial activities of novel Indole barbiturates” (Med Chem Res, 2012).

Structures are written as SMILES. Calls of active or inactive are those of the source. The calls are words filed in the database; no cut-off is given here.

What all share (type): functional, organism-based
In test [1] the test system is Staphylococcus aureus. Nature of the test: Growth inhibition of Staphylococcus aureus at 200 ug/ml by cup-plate method.
Test [2] concerns Pseudomonas aeruginosa. Nature of the test: Growth inhibition of Pseudomonas aeruginosa at 300 ug/ml by cup-plate method.
Test [3] concerns Staphylococcus aureus. Nature of the test: Growth inhibition of Staphylococcus aureus at 100 ug/ml by cup-plate method.
Test [4] concerns Proteus vulgaris. Nature of the test: Growth inhibition of Proteus vulgaris at 100 ug/ml by cup-plate method.
For test [5], the system named is Escherichia coli. Nature of the test: Growth inhibition of Escherichia coli at 100 ug/ml by cup-plate method.
For test [6], the system named is Bacillus subtilis. Nature of the test: Growth inhibition of Bacillus subtilis at 100 ug/ml by cup plate method.
Test [7] has as its system Saccharomyces cerevisiae. Nature of the test: Growth inhibition of Saccharomyces cerevisiae at 300 ug/ml by cup-plate method.
The test system of test [8] is Candida albicans. Nature of the test: Growth inhibition of Candida albicans at 200 ug/ml by cup-plate method.
Test [9] has as its system Proteus vulgaris. Nature of the test: Growth inhibition of Proteus vulgaris at 300 ug/ml by cup-plate method.
Test [10] concerns Pseudomonas aeruginosa. Nature of the test: Growth inhibition of Pseudomonas aeruginosa at 200 ug/ml by cup-plate method.
Test [11] concerns Bacillus subtilis. Nature of the test: Growth inhibition of Bacillus subtilis at 200 ug/ml by cup plate method.
Test [12] has as its system Staphylococcus aureus. Nature of the test: Growth inhibition of Staphylococcus aureus at 300 ug/ml by cup-plate method.
For test [13], the system named is Bacillus subtilis. Nature of the test: Growth inhibition of Bacillus subtilis at 300 ug/ml by cup plate method.
Test [14] deals with Escherichia coli. Nature of the test: Growth inhibition of Escherichia coli at 200 ug/ml by cup-plate method.
Test [15] concerns Pseudomonas aeruginosa. Nature of the test: Growth inhibition of Pseudomonas aeruginosa at 100 ug/ml by cup-plate method.
The test system of test [16] is Saccharomyces cerevisiae. Nature of the test: Growth inhibition of Saccharomyces cerevisiae at 200 ug/ml by cup-plate method.
Test [17] deals with Saccharomyces cerevisiae. Nature of the test: Growth inhibition of Saccharomyces cerevisiae at 100 ug/ml by cup-plate method.
In test [18] the test system is Candida albicans. Nature of the test: Growth inhibition of Candida albicans at 100 ug/ml by cup-plate method.
Test [19] concerns Proteus vulgaris. Nature of the test: Growth inhibition of Proteus vulgaris at 200 ug/ml by cup-plate method.
Test [20] deals with Candida albicans. Nature of the test: Growth inhibition of Candida albicans at 300 ug/ml by cup-plate method.
Test [21] has as its system Escherichia coli. Nature of the test: Growth inhibition of Escherichia coli at 300 ug/ml by cup-plate method.

As for `O=C1NC(=O)C(=Cc2c(-c3ccccc3)n(CC(=O)c3ccc(-c4ccccc4)cc3)c3ccccc23)C(=O)N1`, the “growth inhibition (GI)” value in test [1], in test [2], in test [3], in test [5], in test [6] and in test [7] was “Active” throughout. For the same compound, the “growth inhibition (GI)” value in test [9], in [11], in test [12], in [13], in test [14] and in test [16] was “Active” throughout. Moreover, the “growth inhibition (GI)” value in [17], in test [19] and in test [21] was “Active” in each case. Also, the “growth inhibition (GI)” value in test [4], in test [8], in [10], in [15], in test [18] and in [20] was “inactive” in each case.
Regarding `O=C1NC(=O)C(=Cc2c(-c3ccccc3)n(CC(=O)c3ccc(Br)cc3)c3ccccc23)C(=O)N1`, the “growth inhibition (GI)” value in test [1], in [2], in test [3], in [4], in test [5] and in test [6] was “Active” throughout. The “growth inhibition (GI)” value in [7], in test [8], in [9], in test [10], in test [11] and in test [12] was “Active” in each case. Moreover, the “growth inhibition (GI)” value in test [13], in test [14], in test [15], in [16], in [17] and in [18] was “Active” throughout. The “growth inhibition (GI)” value in test [19], in test [20] and in test [21] was “Active” in each case.
